In ChEMBL document CHEMBL5532732, “Structure-Based Rational Design of Constrained Peptides as TIM-3 Inhibitors” (ACS Med Chem Lett, 2024):
Calls of active or inactive are those of the source. The calls are words filed in the database; no cut-off is given here. Peptide text beside a SMILES is read from it.

Key:
[1] = Apparent permeability across apical to basolateral in human Caco-2 cells; assay type: ADME, cell-based
[2] = Apparent permeability across basolateral to apical in human Caco-2 cells; assay type: ADME, cell-based
[3] = Stability in simulated gastric fluids at pH 1.6 assessed as half life; assay type: ADME; details: simulated gastric fluid
Kasumi 1 = test: Antiproliferative activity against human Kasumi 1 cells at 1 uM; assay type: functional, cell-based
[4] = Distribution coefficient, log D of the compound at pH 7.4 by shake flask method; assay type: physicochemical; details: octanol/water
PBMC = test: Induction of cytokine production in human PBMC cells assessed as increase in IFN-gamma level at 1 uM in the presence of TIM3 stimulation by ELISA method; assay type: functional, cell-based
[5] = Stability in simulated Intestinal fluids at pH 6.5 assessed as half life; assay type: ADME; details: simulated intestinal fluid
[6] = Stability in human plasma assessed as compound remaining incubated for 2 hrs; assay type: ADME, cell-free; details: read-out: Stability
Homo sapiens = organism: Homo sapiens; details: dose 250.0 nM
Description: Inhibition of recombinant human Gal-9 to biotinylated recombinant human TIM3 protein-protein interaction at 250 nM by ELISA method

[7] = Stability in rat liver microsomes assessed as half life; assay type: ADME, Microsome

## CC[C@H](C)[C@@H]1NC(=O)[C@H](Cc2ccc(O)cc2)NC(=O)[C@H](CS)NC(=O)[C@H](CO)NC(=O)[C@H](Cc2ccccc2)NC(=O)CNC(=O)[C@H](CO)NC(=O)[C@H](CO)NC(=O)[C@H](CO)NC(=O)[C@H](CS)NC(=O)[C@H](Cc2ccc(O)cc2)NC(=O)[C@H](CO)NC1=O (cyclo(CSSSGFSCYISY))
[1]
  Papp A→B: 8.16 ×10⁻⁶ cm/s
[2]
  Papp B→A: 12.5 ×10⁻⁶ cm/s
[3]
  half-life: 8.7 h
Kasumi 1
  Activity: inactive
[4]
  logD: 3.52
PBMC
  Activity: Active
[5]
  half-life: 16.4 h
[6]
  remaining at 2 h: 95.4%
Homo sapiens
  inhibition: Active
[7]
  half-life: 12.4 h
